The values that follow come from ChEMBL document CHEMBL1201862, “PubChem BioAssay data set” (2004).

The target in assay [1] is T1, Mannose-6-phosphate isomerase (Homo sapiens, UniProt P34949).
T1 sequence (P34949 whole entry): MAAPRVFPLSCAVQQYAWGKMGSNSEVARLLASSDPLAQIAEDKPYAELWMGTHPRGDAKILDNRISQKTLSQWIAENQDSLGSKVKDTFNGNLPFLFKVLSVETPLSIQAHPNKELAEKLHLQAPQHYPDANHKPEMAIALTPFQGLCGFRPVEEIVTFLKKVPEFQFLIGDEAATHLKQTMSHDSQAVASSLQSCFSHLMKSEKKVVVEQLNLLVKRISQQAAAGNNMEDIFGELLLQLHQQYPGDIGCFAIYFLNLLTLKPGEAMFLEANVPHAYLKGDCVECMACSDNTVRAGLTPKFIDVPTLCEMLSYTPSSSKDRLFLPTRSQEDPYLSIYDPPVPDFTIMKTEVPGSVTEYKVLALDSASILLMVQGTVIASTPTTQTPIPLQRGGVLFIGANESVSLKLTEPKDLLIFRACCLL
The experiment in a line: inhibitors of human PMI, primary screen, biochemical, fluorescence intensity, coupled assay (AID 1209).

Assay [2] deals with T2, Apoptotic protease-activating factor 1 (Homo sapiens, UniProt O14727).
T2 sequence (O14727 whole entry): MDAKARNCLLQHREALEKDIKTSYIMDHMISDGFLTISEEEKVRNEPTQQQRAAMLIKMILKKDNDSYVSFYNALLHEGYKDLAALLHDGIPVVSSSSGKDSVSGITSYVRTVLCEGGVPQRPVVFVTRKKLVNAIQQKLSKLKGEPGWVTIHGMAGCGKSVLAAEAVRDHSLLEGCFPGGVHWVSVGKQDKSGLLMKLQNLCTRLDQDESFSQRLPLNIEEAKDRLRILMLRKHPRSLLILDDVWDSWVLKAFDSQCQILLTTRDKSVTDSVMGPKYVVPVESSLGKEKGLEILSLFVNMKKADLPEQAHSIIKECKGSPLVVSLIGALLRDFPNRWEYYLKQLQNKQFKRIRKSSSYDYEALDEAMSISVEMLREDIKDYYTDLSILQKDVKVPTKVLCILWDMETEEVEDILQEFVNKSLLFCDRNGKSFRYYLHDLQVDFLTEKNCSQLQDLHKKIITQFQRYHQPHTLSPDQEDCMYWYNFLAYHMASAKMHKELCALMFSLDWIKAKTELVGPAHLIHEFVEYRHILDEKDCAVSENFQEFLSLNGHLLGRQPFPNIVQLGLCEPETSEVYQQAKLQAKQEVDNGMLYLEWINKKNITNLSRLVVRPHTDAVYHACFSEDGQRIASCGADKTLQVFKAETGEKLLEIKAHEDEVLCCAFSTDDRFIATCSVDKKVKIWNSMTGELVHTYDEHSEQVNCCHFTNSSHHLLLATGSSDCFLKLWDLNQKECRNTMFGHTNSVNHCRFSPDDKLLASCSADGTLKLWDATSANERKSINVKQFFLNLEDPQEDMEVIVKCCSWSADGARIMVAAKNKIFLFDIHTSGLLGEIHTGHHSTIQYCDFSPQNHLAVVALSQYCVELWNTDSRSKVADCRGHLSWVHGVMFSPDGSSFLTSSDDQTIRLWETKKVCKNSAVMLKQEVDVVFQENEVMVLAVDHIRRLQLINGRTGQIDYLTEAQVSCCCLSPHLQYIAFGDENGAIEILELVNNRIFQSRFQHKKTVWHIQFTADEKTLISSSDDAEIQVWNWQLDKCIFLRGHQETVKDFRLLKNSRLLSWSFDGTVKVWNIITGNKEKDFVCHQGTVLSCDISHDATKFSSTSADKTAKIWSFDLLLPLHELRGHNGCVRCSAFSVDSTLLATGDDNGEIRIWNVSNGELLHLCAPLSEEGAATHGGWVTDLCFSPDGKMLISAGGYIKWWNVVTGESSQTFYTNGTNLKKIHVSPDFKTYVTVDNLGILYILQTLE
The assay is classed as functional.

In assay [3] the target is T3, RNA-binding protein pos-1 (Caenorhabditis elegans, UniProt G5EF15).
T3 sequence (G5EF15 whole entry): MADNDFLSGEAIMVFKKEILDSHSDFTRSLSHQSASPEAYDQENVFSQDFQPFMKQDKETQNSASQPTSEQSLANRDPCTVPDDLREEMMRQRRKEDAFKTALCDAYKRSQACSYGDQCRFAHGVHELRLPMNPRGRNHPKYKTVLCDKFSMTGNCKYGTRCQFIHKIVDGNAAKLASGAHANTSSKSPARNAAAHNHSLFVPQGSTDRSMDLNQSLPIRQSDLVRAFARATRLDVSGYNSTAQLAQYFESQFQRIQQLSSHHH
Put plainly: inhibitors of POS-1/mex-3 RNA binding, dose response, biochemical, fluorescence polarization (AID 1964).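 Also: purified POS-1 fused to maltose binding protein made in E. coli; potency of compounds blocking POS-1 binding to fluorescent RNA.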 For orientation: Polarisation of emitted light reports the rotation of a fluorescent probe.

Assay [4] addresses T4, Zinc finger protein mex-5 (Caenorhabditis elegans, UniProt Q9XUB2).
T4 sequence (Q9XUB2 whole entry): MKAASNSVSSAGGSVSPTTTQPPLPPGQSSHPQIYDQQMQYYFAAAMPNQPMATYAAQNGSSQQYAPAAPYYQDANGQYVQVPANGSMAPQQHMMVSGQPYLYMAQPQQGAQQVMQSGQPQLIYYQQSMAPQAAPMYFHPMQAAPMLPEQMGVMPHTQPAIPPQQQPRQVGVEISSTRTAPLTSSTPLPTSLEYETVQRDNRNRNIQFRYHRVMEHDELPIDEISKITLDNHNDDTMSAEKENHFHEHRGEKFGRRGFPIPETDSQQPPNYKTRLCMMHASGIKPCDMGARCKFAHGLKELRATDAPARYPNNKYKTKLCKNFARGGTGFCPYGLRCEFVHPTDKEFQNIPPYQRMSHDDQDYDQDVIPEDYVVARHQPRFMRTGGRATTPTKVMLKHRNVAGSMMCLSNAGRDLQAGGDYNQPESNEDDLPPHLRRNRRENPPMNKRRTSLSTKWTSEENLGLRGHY
Put plainly: MEX-5/TCR-2 RNA interaction inhibitors, dose response, biochemical, C. elegans, fluorescence polarization (AID 1960).

For another assay, the target named is Keap1/Nrf2 (Homo sapiens, UniProt Q14145). Put plainly: Keap1-Nrf2 protein-protein interaction inhibitors, dose response, biochemical, fluorescence polarization, cherry-picked samples (AID 588683).
Sequence of Keap1/Nrf2 (Q16236 whole entry): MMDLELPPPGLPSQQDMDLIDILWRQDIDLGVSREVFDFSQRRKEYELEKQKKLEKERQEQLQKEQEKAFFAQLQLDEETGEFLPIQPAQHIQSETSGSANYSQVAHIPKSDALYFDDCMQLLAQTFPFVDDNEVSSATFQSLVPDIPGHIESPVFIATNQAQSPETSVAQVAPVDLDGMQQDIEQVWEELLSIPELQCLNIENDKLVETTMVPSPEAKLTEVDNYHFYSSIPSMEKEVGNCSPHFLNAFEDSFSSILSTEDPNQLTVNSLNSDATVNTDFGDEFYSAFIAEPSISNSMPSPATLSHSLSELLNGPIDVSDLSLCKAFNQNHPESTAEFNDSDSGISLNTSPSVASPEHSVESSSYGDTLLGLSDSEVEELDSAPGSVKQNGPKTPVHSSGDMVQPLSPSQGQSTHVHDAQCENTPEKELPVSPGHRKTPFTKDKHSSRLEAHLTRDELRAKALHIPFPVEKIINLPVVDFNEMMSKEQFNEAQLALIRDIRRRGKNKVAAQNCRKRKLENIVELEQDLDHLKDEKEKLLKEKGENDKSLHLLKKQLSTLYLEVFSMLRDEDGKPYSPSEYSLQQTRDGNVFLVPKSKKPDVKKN
Sequence of Keap1/Nrf2 (Q14145 whole entry): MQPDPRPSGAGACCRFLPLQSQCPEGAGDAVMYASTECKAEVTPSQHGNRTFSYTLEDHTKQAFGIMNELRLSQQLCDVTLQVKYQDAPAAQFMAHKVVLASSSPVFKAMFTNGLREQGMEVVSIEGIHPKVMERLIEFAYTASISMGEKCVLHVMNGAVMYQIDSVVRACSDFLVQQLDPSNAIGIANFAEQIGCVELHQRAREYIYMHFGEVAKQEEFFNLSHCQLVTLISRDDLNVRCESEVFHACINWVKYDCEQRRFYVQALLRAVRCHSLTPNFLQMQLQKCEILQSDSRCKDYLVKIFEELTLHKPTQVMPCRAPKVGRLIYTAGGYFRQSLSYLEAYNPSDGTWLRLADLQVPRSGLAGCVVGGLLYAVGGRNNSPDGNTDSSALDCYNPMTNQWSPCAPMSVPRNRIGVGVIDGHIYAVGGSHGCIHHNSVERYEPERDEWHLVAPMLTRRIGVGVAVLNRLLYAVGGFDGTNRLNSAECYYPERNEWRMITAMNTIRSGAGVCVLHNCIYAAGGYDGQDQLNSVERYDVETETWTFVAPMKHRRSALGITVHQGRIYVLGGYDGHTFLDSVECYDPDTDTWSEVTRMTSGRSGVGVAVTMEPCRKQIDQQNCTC
Assay [5] is described as follows: activation of PKA-R1A holoenzyme dissociation, dose response, counter-screen for PKA-R2B activator project, biochemical, Cy5-IP20 fluorescence polarization, 1536-well, triplicate (AID 504896). Background: Counterscreens check selectivity or assay interference.
Assay [6] in a line: Fluorescence polarization-based biochemical high throughput dose response assay for activators of the Protein Kinase A-R2B (PKA-R2B) complex. [Related pubchem assays (depositor defined):AID504700, AID504704, AID504796, AID504797].
A further assay has as its target T5, Protein Tat (Human immunodeficiency virus type 1 group M subtype B (isolate HXB2)(HIV-1), UniProt P04608).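 Also: tat binding to TAR RNA read out by fluorescence polarization.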
T5 sequence (P04608 whole entry): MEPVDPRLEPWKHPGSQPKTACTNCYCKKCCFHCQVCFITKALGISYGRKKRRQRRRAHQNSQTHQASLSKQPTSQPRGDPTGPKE
The format is functional.

The test system of a further assay is CHO. The experiment in a line: cytotoxicity in TLR9-MyD88 CHO cells, dose response, cytotoxicity control for TLR9-MyD88 binding inhibitor project, cell-based, luminescence (AID 588339).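 Also: CHO cells stably coexpressing TLR9 and MyD88 fusions from primary screen; compound exposure lasted 48 hours before viability readout.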 The assay is classed as functional, hamster. As to conditions: Cricetulus griseus.
Assay [7] can be described thus: THP-1 cell cytotoxicity, dose response, cytotoxicity control for Vif-APOBEC3G degradation inhibitor project, THP-1 cells (AID 1117359). The assay is classed as functional. As to conditions: Human immunodeficiency virus 1, THP-1.
For a further assay, the target named is Beta Lactamase (Pseudomonas aeruginosa, UniProt Q932Y6). The experiment in a line: beta-lactamase reporter inhibitor potency, dose response, artefact control for TLR9-MyD88 binding inhibitor project, BLA reporter cells, FRET fluorescence (AID 588341).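 Also: cell based assay in CHO-K1 cells stably expressing beta-lactamase.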 The format is cell-based.
Sequence of Beta Lactamase (Q932Y6 whole entry): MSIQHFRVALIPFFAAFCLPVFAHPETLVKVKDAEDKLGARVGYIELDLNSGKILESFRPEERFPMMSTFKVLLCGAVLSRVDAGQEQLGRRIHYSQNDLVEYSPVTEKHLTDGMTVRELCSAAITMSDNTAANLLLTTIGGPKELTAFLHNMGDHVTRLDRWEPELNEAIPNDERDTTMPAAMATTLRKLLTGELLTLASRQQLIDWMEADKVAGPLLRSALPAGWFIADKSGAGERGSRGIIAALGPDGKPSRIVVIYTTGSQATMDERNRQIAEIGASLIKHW
The subject of the next assay is NIH3T3. Put plainly: cytotoxicity in NIH-3T3 fibroblasts, dose response, cytotoxicity control for antifungal drug resistance project, cell-based, Alamar Blue, fluconazole, dry powder (AID 488809). The assay is classed as functional. The note with it: Mus musculus. In general terms: Alamar Blue is a resazurin reagent that responds to reducing activity.
Assay [8] deals with T6, Short transient receptor potential channel 4 (Mus musculus, UniProt Q9QUQ5).
T6 sequence (Q9QUQ5 whole entry): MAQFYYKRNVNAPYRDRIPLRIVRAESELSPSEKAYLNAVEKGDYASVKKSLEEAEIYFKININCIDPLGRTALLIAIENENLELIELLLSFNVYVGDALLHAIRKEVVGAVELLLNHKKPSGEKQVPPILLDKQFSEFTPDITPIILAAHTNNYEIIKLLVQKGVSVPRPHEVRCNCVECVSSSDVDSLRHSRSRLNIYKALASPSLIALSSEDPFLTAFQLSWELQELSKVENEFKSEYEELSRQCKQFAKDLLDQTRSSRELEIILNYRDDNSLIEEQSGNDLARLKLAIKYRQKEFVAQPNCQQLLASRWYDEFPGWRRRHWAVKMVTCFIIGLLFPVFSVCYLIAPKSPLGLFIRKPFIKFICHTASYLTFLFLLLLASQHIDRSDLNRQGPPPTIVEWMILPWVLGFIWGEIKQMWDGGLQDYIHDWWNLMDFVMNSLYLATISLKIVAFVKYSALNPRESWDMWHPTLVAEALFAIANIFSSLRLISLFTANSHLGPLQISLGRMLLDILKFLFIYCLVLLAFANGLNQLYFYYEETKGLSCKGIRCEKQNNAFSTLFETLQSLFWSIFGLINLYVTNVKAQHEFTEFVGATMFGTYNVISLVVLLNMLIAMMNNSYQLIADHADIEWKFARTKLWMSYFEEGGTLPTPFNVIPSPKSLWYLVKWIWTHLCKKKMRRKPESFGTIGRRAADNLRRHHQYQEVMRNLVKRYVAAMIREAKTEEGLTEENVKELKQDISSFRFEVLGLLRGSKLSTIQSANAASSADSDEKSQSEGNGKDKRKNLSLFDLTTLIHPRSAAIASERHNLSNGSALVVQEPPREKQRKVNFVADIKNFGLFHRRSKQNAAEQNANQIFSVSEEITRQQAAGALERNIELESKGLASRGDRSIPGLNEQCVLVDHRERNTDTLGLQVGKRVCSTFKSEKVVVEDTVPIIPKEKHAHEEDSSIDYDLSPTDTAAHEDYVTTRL
The experiment in a line: SAR Analysis for the identification of selective inhibits of the transient receptor potential cation channel C4 (TRPC4): Automated Electrophysiology_2. [Related pubchem assays (depositor defined):AID2256]. The assay is classed as functional.

Assay [9] concerns the target T6, Short transient receptor potential channel 4. The experiment in a line: TRPC4 inhibitor concentration-response, dose response, cell-based, HEK293 TRPC4/mu-opioid, DAMGO stimulus, Fluo-4 (AID 492994). The assay is classed as functional.
The target of assay [10] is T7, Endoribonuclease toxin MazF (Escherichia coli K-12, UniProt P0AE70). The experiment in a line: fluorescent RNA oligo signal without MazF, dose response, counter-screen for MazEF activator project, biochemical, fluorescence, single-stranded RNase substrate (AID 588502). The format is functional.
T7 sequence (P0AE70 whole entry): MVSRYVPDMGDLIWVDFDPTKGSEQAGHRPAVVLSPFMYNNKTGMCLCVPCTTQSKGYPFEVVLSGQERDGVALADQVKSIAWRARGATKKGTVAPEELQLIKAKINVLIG
Assay [11] concerns the target T7, Endoribonuclease toxin MazF. Put plainly: MazF toxin RNase activators, dose response, biochemical, fluorescence, single-stranded RNA substrate, uHTS hits (AID 588481). The assay is classed as functional.
Assay [12] relates to HEK293. Put plainly: cytotoxicity in HEK293T NF-kB-Luc cells, SAR follow-up, cytotoxicity control for NF-kB activator project, cell-based, resazurin fluorescence (AID 493251). The format is functional. The note with it: Homo sapiens.
The test system of assay [13] is HEK293. Put plainly: SAR Analysis of small molecule inhibitors of T-cell specific antigen receptor-induced NF-kB activation in a HEK-293T cell line using a luminescence assay - Set 2. [Related pubchem assays (depositor defined):AID435003, AID435012, AID489026]. The assay is classed as functional, cell-based. As to conditions: Homo sapiens.
For another assay, the system named is Jurkat. The experiment in a line: SAR Analysis of small molecule inhibitors of T-cell specific antigen receptor-induced NF-kB activation in a Jurkat cell line using a luminescence assay - Set 2. [Related pubchem assays (depositor defined):AID435003, AID435012, AID465]. The format is functional, cell-based. As to conditions: Homo sapiens.

SMILES strings stand for the structures. Active and inactive are the calls of the source. Unless noted, the rule behind the calls is not given here. Where only a bound is given, the exact number is not on record here.

As for `O=C(N/N=C/c1ccc(-c2ccccc2[N+](=O)[O-])o1)c1cccnc1`, the values for the IC50 in assay [1] and in [2] were > 50 µM (not active) and 39.2 µM (active), respectively.
For `Cc1cc(C)c[n+](-c2[n-]c(=O)sc2C=NN=C(S)Nc2ccccc2)c1`, the EC50 (as a rule, the midpoint of the concentration-response curve) in assay [3] was 9.61 µM (active); in assay [4] it was 9.02 µM (inconclusive). In addition, the half-maximal activity concentration (AC50) – broadly, the concentration giving half of the maximal activity seen – on Keap1/Nrf2 was 39.6 µM (active).
Consider `O=C(O)c1sccc1SCc1ccc(Cl)cc1Cl`, for which the values for the EC50 in assay [5] and in assay [6] were > 114 µM (inactive) and 66.9 µM (inactive), respectively.
With `N#Cc1ccc(-c2ccco2)nc1SCC(=O)c1ccc(Cl)cc1`, the IC50 (in general, the midpoint of a concentration-inhibition curve) at Protein Tat was > 100 µM (active); in the assay with CHO, 16.7 µM (inactive); at Beta Lactamase it was 10.1 µM (inactive). Moreover, the 50% cytotoxic concentration (CC50) (in general, the concentration giving 50% cytotoxicity) in assay [7] was > 40 µM (active).
Consider `O=C(Cn1nc(-c2ccccc2)c2ccccc21)N1CCc2ccccc2C1`, for which the AC50 in the assay with NIH3T3 was 34.9 µM (active).
`Cc1cc(N2CCCC(O)C2)nc2ccccc12` (centres undefined): the IC50 in assay [8] is 9.4 µM (active); in assay [9], 7.32 µM (active).
In the case of `CCCn1c(-c2cccs2)nc2c1c(=O)[nH]c(=O)n2Cc1ccccc1`, the EC50 in assay [10] and in assay [11] was > 99 µM (inactive) throughout.
Regarding `CNC(=O)CCc1nc(-c2ccccc2)no1`, the IC50 in the assay on HEK293 [12] was > 80 µM (inactive); in the assay on HEK293 [13], > 80 µM (inactive); in the assay with Jurkat it was > 79 µM (inactive).
